Assay results published in paper PMC5971337, “Development of an Ultra-High Performance Liquid Chromatography Method for Simultaneous Determination of Six Active Compounds in Fructus aurantii and Rat Plasma and Its Application to a Comparative Pharmacokinetic Study in Rats Administered with Different Doses” (Journal of Analytical Methods in Chemistry, 2018).
Read-outs that look alike come from different tables or passages of the source.

Columns and labels:
[1] = Stability of the analytical solution of FA decoction at environmental temperature; assay type: physicochemical; settings: FA decoction 1.7 g/mL
Method: The raw herb (200 g) was immersed in distilled water (1 : 8, w/v) for 0.5 h at room temperature and thereafter was boiled for 0.5 h. The filtrate was collected, and the residue was boiled again in distilled water (1 : 6, w/v) for 0.5 h. The filtrates were mixed together, filtered through a 0.45 µm porous filtration membrane, then farther concentrated in the rotary evaporator to a final concentration equivalent to 1.7 g/mL FA, and stored at −20°C until analyzed. In the experiment, FA decoction (100 µL) was precisely measured, 900 µL methanol was added, then ultrasound was done for 5 min, and it was centrifuged at 15000 rpm (4°C) for 10 min; the supernatant liquor (20 µL) was shifted to a 1.5 mL EP tube, methanol-water (780 µL) was added, and ultrasound was performed, and it was centrifuged at 15000 rpm (4°C) for 10 min again. Finally, 5 µL of the supernatant liquor was injected into the apparatus for detection.
The stability of the analytical solution at environmental temperature was studied by detecting sample solution at 0, 2, 4, 8, 12, and 24 h. The RSD values of peak areas were taken for assessment.

[2] = Stability of QC samples in rat plasma (short-term, freeze-thaw, long-term); assay type: in vitro ADME; settings: for Short-term stability, Mean ± SD: room temperature for 4 h; for Freeze-thaw stability, Mean ± SD: three freeze (−20°C) and thaw cycles; for Long-term stability, Mean ± SD: −20°C for 20 days
Method: (§1) Standard stock solutions were prepared by dissolving reference standards in methanol to yield concentrations of 198 µg/mL for meranzin hydrate, 128 µg/mL for naringenin, 273 µg/mL for hesperetin, and 4.56 µg/mL for SMZ. All solutions were stored at 4°C. QC samples were prepared at three concentration levels containing meranzin hydrate (6.5, 206, 3300 ng/mL), naringenin (13.9, 222, 3555 ng/mL), and hesperetin (3.7, 29.5, 236 ng/mL). Plasmas (100 µL) were spiked with β-glucuronidase (5 µL) and acetic acid buffer solution (10 µL), subsequently vortexed for 10 seconds, and incubated for 4 h at 37°C. Then, SMZ (50 µL) and methanol (135 µL) were added, ultrasound was done for 10 min, and centrifugation at 12000 rpm (4°C) for 10 min was performed. The supernatant (50 µL) was transferred, distilled water (50 µL) was added, then ultrasound and centrifugation again. At last, the supernatant of 5 µL was injected into UPLC.
(5) Stability. QC plasma samples of each concentration at low, medium, and high levels were detected. The freeze and thaw stability were investigated after three freeze (−20°C) and thaw (room temperature) cycles on consecutive days. Long-term stability was studied by storing QC samples at −20°C for 20 days. Short-term stability was assessed by analyzing QC samples kept at room temperature for 4 h.

[3] = Pharmacokinetic study in rats after oral administration of FA decoction; assay type: in vivo, Sprague-Dawley rats; settings: for Cmax / AUC(0-t) / Tmax / MRT last / half-life: male, Sprague-Dawley, rat plasma; for AUC(0-t): last dose day 8, plasma treated with β-glucuronidase; for MRT last: read-out: MRT(0–t); for half-life: read-out: t 1/2z (converted); for AUC(0–t) elevation, 30 g/kg compared with the 15 g/kg group / C max elevation, 30 g/kg compared with the 15 g/kg group: rat, oral FA decoction; for detection in rat plasma: even after orally administering 30 g/kg FA decoction
Method: 16 male Sprague-Dawley (SD) rats weighing 200 ± 20 g were from experimental animal center of Central South University and fostered in an environmentally controlled room (temperature: 22–26°C, humidity: 40–60%, and 12 h dark-light cycle) for 1 week before the experiment. All experimental procedures were implemented strictly according to the guidelines of the Animal Care and Use Committee, Central South University, China. This research was approved by the Animal Ethics Committee of Central South University. Rats were randomly divided into 2 groups (n=8): low-dose group (15 g/kg FA decoction) and high-dose group (30 g/kg FA decoction). The two groups were given by gavage twice a day for 7 days in succession. At the 7th day of medication, the rats were prohibited feeding for about 12 hours without restriction of water. On day 8, the rats were orally administered for the last time at 8 am, and then plasma samples (0.5 mL) were collected from the caudal vein at 5, 10, 20, 30, 60, 90, 240, 360, 480, and 600 min into heparinized vacuum tubes, followed by centrifugation at 3500 rpm (4°C) for 10 min. Then, the plasmas were obtained and immediately stored at −20°C until analysis. During the experiment, the rats were injected intraperitoneally with physiological saline for maintaining fluid balance.
as §1
The database was set up with the SPSS 17.0 software package from SPSS Inc., Chicago, Illinois (US). Differences between the two groups were analyzed by one-way analysis of variance. A two-tailed P value of <0.05 was considered statistically significant. The DAS 3.2.8 pharmacokinetic program (Chinese Pharmacological Society) was used to process pharmacokinetic parameters.
The validated method was applied to determine the plasma concentrations of meranzin hydrate, naringenin, and hesperetin in rats after oral administration of FA decoction at a dose of 15 g/kg and 30 g/kg body weight. The mean plasma concentration-time profiles of meranzin hydrate, naringenin, and hesperetin are shown in Figure 4, and the estimated pharmacokinetic parameters are illustrated in Table 5. According to DAS software, the optimal metabolism process of the 3 components in rats could be depicted as a two-compartment pharmacokinetic model.

[4] = high level (spiked 3300.0 / 3555.0 / 236.0 ng/mL)
[5] = low level (spiked 6.5 / 13.9 / 3.7 ng/mL)
[6] = medium level (spiked 206.0 / 222.0 / 29.5 ng/mL)
[7] = oral FA decoction 15 g/kg twice a day for 7 days, n=8
[8] = oral FA decoction 30 g/kg twice a day for 7 days, n=8

Row | SMILES | Stability in FA decoction, Content ([1]; 0h) | Stability in FA decoction, Content ([1]; 2h) | Stability in FA decoction, Content ([1]; 4h) | Stability in FA decoction, Content ([1]; 8h) | Stability in FA decoction, Content ([1]; 12h) | Stability in FA decoction, Content ([1]; 24h) | AUC(0-t) [3, 7] | Cmax ([3]; oral FA decoction 15 g/kg, n=8) | Tmax ([3]; oral FA decoction 15 g/kg, n=8) | MRT last ([3]; oral FA decoction 15 g/kg, n=8) | half-life ([3]; oral FA decoction 15 g/kg, n=8) | AUC(0-t) [3, 8] | Cmax ([3]; oral FA decoction 30 g/kg, n=8) | Tmax ([3]; oral FA decoction 30 g/kg, n=8) | MRT last ([3]; oral FA decoction 30 g/kg, n=8) | half-life ([3]; oral FA decoction 30 g/kg, n=8) | AUC(0–t) elevation, 30 g/kg compared with the 15 g/kg group [3] | C max elevation, 30 g/kg compared with the 15 g/kg group [3] | detection in rat plasma [3] | also measured
1 | COc1ccc([C@@H]2CC(=O)c3c(O)cc(O[C@@H]4O[C@H](CO[C@@H]5O[C@@H](C)[C@H](O)[C@@H](O)[C@H]5O)[C@@H](O)[C@H](O)[C@H]4O)cc3O2)cc1O [hesperidin] | 4.95 mg/mL | 4.83 mg/mL | 4.71 mg/mL | 5.02 mg/mL | 4.87 mg/mL | 4.82 mg/mL | – | – | – | – | – | – | – | – | – | – | – | – | could not been detected | –
2 | C[C@@H]1O[C@@H](O[C@H]2[C@H](Oc3cc(O)c4c(c3)O[C@H](c3ccc(O)cc3)CC4=O)O[C@H](CO)[C@@H](O)[C@@H]2O)[C@H](O)[C@H](O)[C@H]1O [naringin] | 25.24 mg/mL | 25.35 mg/mL | 24.92 mg/mL | 25.45 mg/mL | 24.98 mg/mL | 25.15 mg/mL | – | – | – | – | – | – | – | – | – | – | – | – | could not been detected | –
3 | COc1ccc([C@@H]2CC(=O)c3c(O)cc(O[C@@H]4O[C@H](CO)[C@@H](O)[C@H](O)[C@H]4O[C@@H]4O[C@@H](C)[C@H](O)[C@@H](O)[C@H]4O)cc3O2)cc1O [neohesperidin] | 14.33 mg/mL | 14.28 mg/mL | 13.98 mg/mL | 14.40 mg/mL | 14.11 mg/mL | 14.08 mg/mL | – | – | – | – | – | – | – | – | – | – | – | – | could not been detected | –

Continued, in another order:

Row | Stability in FA decoction, Content ([1]; 0h) | Stability in FA decoction, Content ([1]; 2h) | Stability in FA decoction, Content ([1]; 4h) | Stability in FA decoction, Content ([1]; 8h) | Stability in FA decoction, Content ([1]; 12h) | Stability in FA decoction, Content ([1]; 24h) | AUC(0-t) [3, 7] | Cmax ([3]; oral FA decoction 15 g/kg, n=8) | Tmax ([3]; oral FA decoction 15 g/kg, n=8) | MRT last ([3]; oral FA decoction 15 g/kg, n=8) | half-life ([3]; oral FA decoction 15 g/kg, n=8) | AUC(0-t) [3, 8] | Cmax ([3]; oral FA decoction 30 g/kg, n=8) | Tmax ([3]; oral FA decoction 30 g/kg, n=8) | MRT last ([3]; oral FA decoction 30 g/kg, n=8) | half-life ([3]; oral FA decoction 30 g/kg, n=8) | AUC(0–t) elevation, 30 g/kg compared with the 15 g/kg group [3] | C max elevation, 30 g/kg compared with the 15 g/kg group [3] | detection in rat plasma [3] | SMILES | also measured
4 | 0.19 mg/mL | 0.19 mg/mL | 0.18 mg/mL | 0.18 mg/mL | 0.19 mg/mL | 0.18 mg/mL | 508 ± 88 ng·h/mL | 83.9 ± 14.2 ng/mL | 1 ± 0.38 h | 4.27 ± 0.27 h | 8.05 ± 3.1 h | 955 ± 227 ng·h/mL | 174 ± 39 ng/mL | 1.31 ± 0.26 h | 4.15 ± 0.35 h | 6.56 ± 3.35 h | 1.88 fold | 2.08 fold | – | COc1ccc([C@@H]2CC(=O)c3c(O)cc(O)cc3O2)cc1O [Hesperetin, hesperetin] | Short-term stability, Mean ± SD [2, 4]: 234.18 ± 22.13 ng/mL; Freeze-thaw stability, Mean ± SD [2, 4]: 235.03 ± 19.71 ng/mL; Long-term stability, Mean ± SD [2, 4]: 235.66 ± 14.53 ng/mL; Short-term stability, Mean ± SD [2, 5]: 3.63 ± 0.87 ng/mL; Freeze-thaw stability, Mean ± SD [2, 5]: 3.52 ± 0.43 ng/mL; Long-term stability, Mean ± SD [2, 5]: 3.67 ± 0.57 ng/mL; Short-term stability, Mean ± SD [2, 6]: 27.88 ± 3.50 ng/mL; Freeze-thaw stability, Mean ± SD [2, 6]: 28.35 ± 4.03 ng/mL; Long-term stability, Mean ± SD [2, 6]: 28.28 ± 1.65 ng/mL; Cmax ([3]; oral, 15 g/kg group): 83.9 ± 14.2 ng/mL; Cmax ([3]; oral, 30 g/kg group): 174 ± 39 ng/mL
5 | 0.34 mg/mL | 0.36 mg/mL | 0.33 mg/mL | 0.34 mg/mL | 0.35 mg/mL | 0.34 mg/mL | 1530 ± 252 ng·h/mL | 505 ± 64.3 ng/mL | 1 ± 0.27 h | 2.77 ± 0.34 h | 2.67 ± 0.81 h | 7370 ± 887 ng·h/mL | 1830 ± 221 ng/mL | 1.25 ± 0.27 h | 3.21 ± 0.22 h | 2.23 ± 0.59 h | 4.8 fold | 3.62 fold | – | COc1ccc2ccc(=O)oc2c1C[C@@H](O)C(C)(C)O [Meranzin hydrate, meranzin hydrate] | –
